How the values were obtained:
DU145 (Prostate Cancer) = assay: Cellular growth inhibition assay (MTT), DU145; assay type: cell-based; settings: Homo sapiens
Procedure: (§1) For screening purposes, compounds were diluted in 96 well plates at a concentration of 20 μM. Plates were warmed at 37° C. for 30 minutes before assay.
(§2) K562 (Chronic Myeloid Leukemia), PC3 (Prostate Cancer), and DU145 (Prostate Cancer) were obtained from the American Type Culture Collection (ATCC). K562 was grown in RPMI, with 10% FBS with Glutamx added. DU145 cells were cultured in DMED, with 10% FBS and Glutamx and MEM non-essential amino acids added. PC3 cells were grown in F12K medium, with 10% FBS and Glutamx and MEM non-essential amino acids added. All cells were grown at 37° C. in 5% CO2.
(§3) Cell suspensions were prepared by harvesting cells from culture. (Cells used in this test should be in later log phase growth and high viability.) Cells were diluted in correct growth medium to 1.1× final concentration (from 50000 cell/mL to 200,000 cell/mL, depending on cell line).
(§4) Compounds to be tested were added (10 μL, 10× final concentration) to a flat bottom 96-well plate. The cellular suspension (90 μL per well) was added, and the plate incubated for 40 hr at 37° C., 5% CO2. MTT (20 μL per well, 5 mg/mL in PBS) was added and the plates were returned to the incubator for a further 6 hours. Lysis buffer (100 μL per well, 10% SDS, 0.01N HCl) was added and the plate stored in the incubator overnight. The plate was then read at 590 nm.

PC3 (Prostate Cancer) = assay: Cellular growth inhibition assay (MTT), PC3; assay type: cell-based; settings: Table 1, 40 hr incubation
Procedure: as §1, §2, §3, §4

[1] = tested on: K562 (Chronic Myeloid Leukemia); assay: Cellular growth inhibition assay (MTT), K562; assay type: cell-based; settings: Homo sapiens, Table 1, 40 hr incubation
Procedure: as §1, §2, §3, §4

[2] = target: T1, TelJak2 (BaF3 TELJAK cells, TEL/Jak2 fusion) (Homo sapiens, UniProt O60674); assay: Cellular growth inhibition assay (MTT), BaF3 TEL:JAK2 cell line; assay type: cell-based
T1 construct: The regions encompassing the kinase domain of JAK2 (nucleotides 2994-3914); expressed in transfected cells; host or cells: BaF3 cells bearing the pTET-off plasmid, transfected with pTELJAK2 (pTRE2 vector); the other entry of the earlier key: ETV6 (P41212, Transcription factor ETV6)
Procedure: as §1
(§5) The coding region encompassing nucleotides 1-487 of TEL was amplified by PCR using the oligonucleotides 5TEL (5′-GGAGGATCCTGATCTCTCTCGCTGTGAGAC-3′) (SEQ ID NO: 1) and 3TEL (5′-AGGC GTCGACTTCTTCTTGATGGTTCTG-3′) (SEQ ID NO: 2) and U937 mRNA as template. A BamH I site was incorporated into the 5TEL primer, and a Sal I site was incorporated into the 3TEL primer. The regions encompassing the kinase domain of JAK2 (nucleotides 2994-3914; JAK2F 5′-ACGC GTCGACGGTGCCTTTGAAGACCGGGAT-3 (SEQ ID NO: 3); JAK2R 5′-ATAGTTTAGCGGCCGCTCAGAATGAAGGTCATTT-3′) (SEQ ID NO: 4) and JAK3 (nucleotides 2520-3469; JAK3F 5′-GAAGTCGACTATGCCTGCCAAGACCCCACGATCTT-3′ (SEQ ID NO: 5); JAK3R 5′-GGATCTAGACTATGAAAAGGACAGGGAGTGGTGTTT-3′ (SEQ ID NO: 6)) were generated by PCR using Taq DNA polymerase (Gibco/BRL) and U937 mRNA as template. A Sal I site was incorporated into the forward primer of JAK2 and JAK3, a Not I site was incorporated into the JAK2 reverse primer and a Xba I site was added to the reverse primer of JAK3.
(§6) A TEL/Jak2 fusion was generated by digestion of the TELPCR product with BamH I/Sa1 I, digestion of the JAK2 PCR product with Sa1 I/Not I followed by ligation and subcloning into the mammalian expression Vector pTRE 2 (Clontech) digested with BamH I-Not I (pTELJAK2). For JAK3 Sa1 I/Not I cleaved kinase domain PCR product was ligated with BamH I/Sa1 I cleaved TELproduct followed by ligation into BamH I/Not I cleaved pTRE2 (pTELJAK3).
(§7) The growth factor dependent myelomonocytic cell line BaF3 bearing the pTET-off plasmid (Clontech) was transfected with either pTELJAK2 or pTELJAK3 and the cells selected for factor independent growth. BaF 3 wild type cells were cultured in DMEM 10% FCS, 10% WEHI 3B conditioned medium. BaF3 TELJAK cells were cultured in DMEM 10% Tet-System Approved FBS (without WEHI 3B conditioned medium).
as §3, §4

[3] = target: T2, TelJak3 (BaF3 TELJAK cells, TEL/JAK3 fusion) (Homo sapiens, UniProt P52333); assay: Cellular growth inhibition assay (MTT), BaF3 TEL:JAK3 cell line; assay type: cell-based
T2 construct: For JAK3 Sa1 I/Not I cleaved kinase domain PCR product was ligated with BamH I/Sa1 I cleaved TELproduct; expressed in transfected cells; host or cells: BaF3 cells bearing the pTET-off plasmid, transfected with pTELJAK3 (pTRE2 vector); the other entry of the earlier key: ETV6 (P41212, Transcription factor ETV6)
Procedure: as §1, §5, §6, §7, §3, §4

[4] = tested on: Tubulin (microtubule protein); assay: Tubulin assay (turbidometric assay of microtubule assembly); assay type: biochemical; settings: 50 μM, absorbance at 340 nm, 37° C.
Procedure: Turbidometric assays of microtubule assembly were performed by incubating microtubule protein in cuvettes at 37° C. in a thermostatically controlled spectrophotometer measuring the change in absorbance at 340 nm over time. The microtubule protein was incubated with the each test compound at 0° C. and polymerisation was initiated by addition of 1 mM GTP, prior to heating to 37° C.

[5] = DU-145, Table 1, 40 hr incubation
[6] = DU-145, Table 2, 40 hr incubation

T2 sequence (P52333 with tags, fused parts or gaps): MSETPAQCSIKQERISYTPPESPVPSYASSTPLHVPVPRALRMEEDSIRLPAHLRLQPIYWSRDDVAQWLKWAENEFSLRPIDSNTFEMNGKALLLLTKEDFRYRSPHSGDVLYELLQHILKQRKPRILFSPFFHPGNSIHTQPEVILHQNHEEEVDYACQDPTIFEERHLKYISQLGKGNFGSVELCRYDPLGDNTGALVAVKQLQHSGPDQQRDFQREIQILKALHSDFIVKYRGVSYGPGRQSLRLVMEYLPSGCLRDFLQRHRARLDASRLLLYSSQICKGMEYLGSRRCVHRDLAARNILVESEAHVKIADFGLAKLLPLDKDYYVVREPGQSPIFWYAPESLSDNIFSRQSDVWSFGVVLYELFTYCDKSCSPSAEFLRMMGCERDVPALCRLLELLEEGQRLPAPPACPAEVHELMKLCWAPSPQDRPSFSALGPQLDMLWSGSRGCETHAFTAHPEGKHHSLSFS
T1 sequence (O60674 with tags, fused parts or gaps): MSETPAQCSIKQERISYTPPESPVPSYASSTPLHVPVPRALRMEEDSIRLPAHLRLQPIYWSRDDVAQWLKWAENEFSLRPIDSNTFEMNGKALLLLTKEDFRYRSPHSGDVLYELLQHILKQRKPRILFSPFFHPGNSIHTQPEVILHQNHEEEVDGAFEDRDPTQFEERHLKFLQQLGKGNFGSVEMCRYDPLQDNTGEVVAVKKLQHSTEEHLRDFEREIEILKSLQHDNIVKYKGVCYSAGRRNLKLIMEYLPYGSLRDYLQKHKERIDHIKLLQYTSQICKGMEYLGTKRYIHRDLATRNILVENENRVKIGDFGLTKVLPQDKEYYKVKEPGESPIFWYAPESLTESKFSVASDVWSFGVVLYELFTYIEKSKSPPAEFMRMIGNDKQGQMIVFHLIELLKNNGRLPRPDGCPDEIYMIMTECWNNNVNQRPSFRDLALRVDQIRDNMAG

| Compound | inhibition at 20 µM (DU145 (Prostate Cancer); [5]) [%] | inhibition at 20 µM (PC3 (Prostate Cancer)) [%] | inhibition at 20 µM [1] [%] | inhibition at 20 µM ([2]; Table 1, 40 hr incubation) [%] | inhibition at 20 µM ([3]; Table 1, 40 hr incubation) [%] | Tubulin inhibition of tubulin polymerisation ([4]; Table 1) | inhibition at 20 µM (DU145 (Prostate Cancer); [6]) [%] | inhibition at 20 µM ([2]; Table 2, 40 hr incubation) [%] | inhibition at 20 µM ([3]; Table 2, 40 hr incubation) [%] | Tubulin inhibition of tubulin polymerisation ([4]; Table 2) |
| --- | --- | --- | --- | --- | --- | --- | --- | --- | --- | --- |
| CCCC(Nc1cncc(-c2ccc(CO)cc2)n1)c1ccccc1 (stereo not drawn) | > 50 | > 50 | > 50 | > 50 | > 50 | + (compounds which inhibited tubulin polymerisation by greater than 50% at 50 μM) | – | – | – | – |
| CCCC(Nc1cncc(-c2ccc(NC(=O)NCC)c(OC)c2)n1)c1ccccn1 (stereo not drawn) | > 50 | > 50 | > 50 | > 50 | > 50 | + (compounds which inhibited tubulin polymerisation by greater than 50% at 50 μM) | – | – | – | – |
| CCNC(=O)Nc1ccc(-c2ncc(C)c(N[C@@H](CC)c3cccnc3)n2)cc1OC | > 50 | > 50 | > 50 | > 50 | > 50 | + (compounds which inhibited tubulin polymerisation by greater than 50% at 50 μM) | – | – | – | – |
| CC[C@H](Nc1nc(-c2ccc(O)c(OC)c2)ncc1C)c1cccnc1 | > 50 | > 50 | > 50 | > 50 | > 50 | + (compounds which inhibited tubulin polymerisation by greater than 50% at 50 μM) | – | – | – | – |
| CCCC(Nc1cncc(-c2ccc(CN)c(OC)c2)n1)c1cccnc1 (stereo not drawn) | > 50 | > 50 | > 50 | > 50 | > 50 | + (compounds which inhibited tubulin polymerisation by greater than 50% at 50 μM) | – | – | – | – |
| CCCC(Nc1cncc(-c2ccc(OCCCN3CCN(C)CC3)c(OC)c2)n1)c1ccccc1 (stereo not drawn) | > 50 | > 50 | > 50 | > 50 | > 50 | + (compounds which inhibited tubulin polymerisation by greater than 50% at 50 μM) | – | – | – | – |
| CC[C@H](Nc1cncc(-c2ccc(O)c(OC)c2)n1)c1ccccc1 | – | – | – | – | – | – | > 50 | > 50 | > 50 | + (compounds which inhibited tubulin polymerisation by greater than 50% at 50 μM) |
| COc1cc(-c2cncc(NC(C)c3ccc(-c4cccnc4)cc3)n2)ccc1O (stereo not drawn) | – | – | – | – | – | – | > 50 | > 50 | > 50 | + (compounds which inhibited tubulin polymerisation by greater than 50% at 50 μM) |
| CCCC(Nc1cncc(-c2ccc(CN3CCCC3)cc2)n1)c1ccccc1 (stereo not drawn) | > 50 | > 50 | > 50 | > 50 | > 50 | + (compounds which inhibited tubulin polymerisation by greater than 50% at 50 μM) | – | – | – | – |
| CCCC(Nc1nnc(C)c(-c2ccc(O)c(OC)c2)n1)c1ccccc1 (stereo not drawn) | > 50 | > 50 | > 50 | > 50 | > 50 | + (compounds which inhibited tubulin polymerisation by greater than 50% at 50 μM) | – | – | – | – |
| COc1cc(-c2cncc(N[C@@H](C)c3ccccc3)c2)ccc1O | > 50 | > 50 | > 50 | > 50 | > 50 | + (compounds which inhibited tubulin polymerisation by greater than 50% at 50 μM) | – | – | – | – |
| COc1cc(-c2cncc(NC(C)c3cccc(NC(=O)c4cccnc4)c3)n2)ccc1O (stereo not drawn) [drawing 127] | – | – | – | – | – | – | > 50 | > 50 | > 50 | + (compounds which inhibited tubulin polymerisation by greater than 50% at 50 μM) |
| CCCC(Nc1cncc(-c2ccc(NC(=O)NCC)c(OC)c2)n1)c1cccnc1 (stereo not drawn) | > 50 | > 50 | > 50 | > 50 | > 50 | + (compounds which inhibited tubulin polymerisation by greater than 50% at 50 μM) | – | – | – | – |
| CCC[C@H](Nc1cncc(-c2ccc(NC(=O)NCC)c(OC)c2)n1)c1ccccn1 | > 50 | > 50 | > 50 | > 50 | > 50 | + (compounds which inhibited tubulin polymerisation by greater than 50% at 50 μM) | – | – | – | – |
| COc1cc(-c2cncc(N[C@@H](C)c3ccccc3)n2)ccc1O | – | – | – | – | – | – | > 50 | > 50 | > 50 | + (compounds which inhibited tubulin polymerisation by greater than 50% at 50 μM) |
| COc1cc(-c2cncc(NC(C)c3cccc(NC(=O)[C@H]4CCCN4)c3)n2)ccc1O (stereo partly drawn) | – | – | – | – | – | – | > 50 | > 50 | > 50 | + (compounds which inhibited tubulin polymerisation by greater than 50% at 50 μM) |
| CCCC(Nc1cncc(-c2ccc(OCCN(CC)CC)c(OC)c2)n1)c1cncc(C)c1 (stereo not drawn) | < 50 | < 50 | > 50 | > 50 | > 50 | – | – | – | – | – |
| CCCC(Nc1nnc(C)c(-c2cc(OC)c(OC)c(OC)c2)n1)c1ccccc1 (stereo not drawn) | < 50 | < 50 | > 50 | > 50 | > 50 | – | – | – | – | – |
| CCCC(Nc1cncc(-c2ccc(C(=O)NCCCCCN)c(C)c2)n1)c1cccnc1 (stereo not drawn) | < 50 | < 50 | > 50 | > 50 | > 50 | – | – | – | – | – |
| COc1cc(-c2cncc(NC(C)c3cccc(NC(=O)c4cccnc4)c3)n2)ccc1O (stereo not drawn) [drawing 124] | – | – | – | – | – | – | – | – | – | + (compounds which inhibited tubulin polymerisation by greater than 50% at 50 μM) |
